Assay type in all cases: functional, cell-based
The target in series [1] is T1, Solute carrier organic anion transporter family member 1A3 (Rattus norvegicus, UniProt P70502).
T1 sequence (P70502 whole entry): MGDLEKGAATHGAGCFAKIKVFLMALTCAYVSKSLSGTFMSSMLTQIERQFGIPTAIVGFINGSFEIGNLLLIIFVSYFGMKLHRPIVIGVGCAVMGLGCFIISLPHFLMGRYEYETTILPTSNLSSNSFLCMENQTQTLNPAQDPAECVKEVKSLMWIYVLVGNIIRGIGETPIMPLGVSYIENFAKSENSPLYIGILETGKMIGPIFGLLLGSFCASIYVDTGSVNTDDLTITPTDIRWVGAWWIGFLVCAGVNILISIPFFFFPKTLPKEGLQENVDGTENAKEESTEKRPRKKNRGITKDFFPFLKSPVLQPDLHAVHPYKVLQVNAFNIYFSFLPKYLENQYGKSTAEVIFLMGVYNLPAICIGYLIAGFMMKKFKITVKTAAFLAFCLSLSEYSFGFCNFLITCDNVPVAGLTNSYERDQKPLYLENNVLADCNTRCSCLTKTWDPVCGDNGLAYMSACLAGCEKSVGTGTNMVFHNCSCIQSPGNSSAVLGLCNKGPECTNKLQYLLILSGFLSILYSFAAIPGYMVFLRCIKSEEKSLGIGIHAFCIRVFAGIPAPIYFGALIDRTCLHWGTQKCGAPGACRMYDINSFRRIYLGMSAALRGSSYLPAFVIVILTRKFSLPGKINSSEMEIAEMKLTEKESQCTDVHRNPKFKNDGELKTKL
Briefly: TP_TRANSPORTER: inhibition of MTX uptake (MTX: 0.1 uM, Flufenamate: 1000 uM) in OAT-K1-expressing LLC-PK1 cells. Conditions: pig, llc-pk1, 1000 µM.

The target in series [2] is T1, Solute carrier organic anion transporter family member 1A3. Briefly: TP_TRANSPORTER: inhibition of MTX uptake (MTX: 0.1 uM, Phenylbutazone: 1000 uM) in OAT-K1-expressing LLC-PK1 cells. Conditions: pig, llc-pk1, 1000 µM.
The target is the same in series [3]. Kind of series: TP_TRANSPORTER: inhibition of MTX uptake in OAT-K1-expressing LLC-PK1 cells.
Series [4] has the same target. Briefly: TP_TRANSPORTER: inhibition of MTX uptake (MTX: 0.1 uM, Ibuprofen: 1000 uM) in OAT-K1-expressing LLC-PK1 cells. Conditions: pig, llc-pk1, 1000 µM.

pKi: −log10 of the molar value.

As usually defined, the pKi is the Ki on a negative log10 scale, so that one unit is a factor of ten. A high value points to a small Ki.

`O=C(O)c1ccccc1Nc1cccc(C(F)(F)F)c1` [FLUFENAMIC ACID]: in series [1], the Activity result is “inhibitor [(at a rough estimate) 55 % of control]”.

Take `CCCCC1C(=O)N(c2ccccc2)N(c2ccccc2)C1=O` [PHENYLBUTAZONE]: the Activity entry in series [2] is “inhibitor [(at a rough estimate) 70 % of control]”.

Compound `COc1ccc2c(c1)c(CC(=O)O)c(C)n2C(=O)c1ccc(Cl)cc1` [INDOMETHACIN] had a pKi in series [3] of 3.00.

Take `CC(C)Cc1ccc(C(C)C(=O)O)cc1` (stereo not given) [IBUPROFEN]: the Activity result in series [4] was “inhibitor [(at a rough estimate) 65 % of control]”. `CC(C(=O)O)c1cccc(C(=O)c2ccccc2)c1` (stereo not given) [KETOPROFEN]: the pKi in series [3] was 2.72.

Values taken from ChEMBL document CHEMBL2073836, “Interactions of nonsteroidal anti-inflammatory drugs with rat renal organic anion transporter, OAT-K1” (J Pharmacol Exp Ther, 1997).
